Results on two compounds are retold here after patent US8338089B2, “Method of inhibiting lentiviral infectivity utilizing zinc chelation to inhibit Vif activity” (The Johns Hopkins University, priority 2006, dated 2012).

The subject of assay [1] is lentivirus. Description: Inhibition in a method of the invention (lentiviral infectivity).
Assay [2] concerns the target T1, Vif-A3G interaction (Human immunodeficiency virus type 1 group M subtype B, UniProt P69723).
T1 construct: expressed in transfected cells; host or cells: 293T
The experiment in a line: Vif-A3G co-immunoprecipitation in 293T cells. It is filed as cell-based, HIV-1. The conditions noted are these: 4 μM TPEN vs control vehicle. The method, then: (§1) 293T cells were transfected with the indicated plasmids in the presence of 4 μM TPEN or control vehicle. Cell lysates were analyzed for A3G degradation by SDS-PAGE followed by immunoblotting for A3G-HA, Vif-myc, and ribosomal p19 as a loading control. […] 293T cells were transfected with the indicated plasmids and treated with […] TPEN or control vehicle. Vif-HA was immunoprecipitated from prepared lysates. Lysates were analyzed by SDS-PAGE followed by immunoblotting for Vif-HA and A3G-myc. […] Cells were infected with WT or ΔVif NL4-3 virus in the presence of A3G-myc and treated with 4 μM TPEN or DMSO. Cells were harvested and virus was isolated from the supernatant by ultracentrifugation and analyzed by SDS PAGE and immunoblotting against Vif, myc, and p24. […] Adenovirus E4orf6 mediated p53 degradation is not affected by 4 μM TPEN. […] Cells were harvested and analyzed for p53 degradation by SDS-PAGE followed by immunoblotting for p53, E4orf6-myc, and ribosomal p19 as a loading control. […]
(§2) Transfected 293T cells were harvested, washed twice with cold PBS, and lysed in lysis buffer (50 mM Tris, pH 7.5, with 150 mM NaCl, 1% Triton X-100, and complete protease inhibitor cocktail tablets) at 4° C. for 1 h, then centrifuged at 10,000×g for 30 min. […] The eluted materials were then analyzed by SDS-PAGE and immunoblotting as previously described (Yu et al. (2003) (supra)). […]

In assay [3] the test system is SIVsyk Vif-Cul5 interaction. Description: SIVsyk Vif immunoprecipitation and immunoblot in 293T cells. It is filed as cell-based. The conditions noted are these: 4 μM TPEN vs vehicle DMSO. The protocol:
(§3) Hydrophobic residues are represented by a Phi (Φ). […] 293T cells were transfected with the indicated SIV Vif expression vectors and treated with 4 μM TPEN. Cell lysates were immunoprecipitated and analyzed by SDS-PAGE followed immunoblotting for Cul5, HA, ElonginB, and ElonginC. […] 293T cells were transfected with SOCS-3-HA and treated with 4 μM TPEN. Cell lysates were immunoprecipitated and analyzed by SDS-PAGE and immunoblotting.
(§4) Medium was removed 12 h prior to harvesting cells and replaced with either fresh medium alone or medium containing the indicated concentration of TPEN (Sigma). After a 12-h incubation, the cells were harvested for immunoprecipitation and immunoblot analysis, or the medium was collected for MAGI assay.
(§5) Transfected 293T cells were harvested, washed twice with cold PBS, and lysed in lysis buffer (50 mM Tris, pH 7.5, with 150 mM NaCl, 1% Triton X-100, and complete protease inhibitor cocktail tablets) at 4° C. for 1 h, then centrifuged at 10,000×g for 30 min. For myc-tag immunoprecipitation, precleared cell lysates were mixed with anti-myc antibody (Upstate) and incubated with protein G at 4° C. for 3 h. […] The eluted materials were then analyzed by SDS-PAGE and immunoblotting as previously described (Yu et al. (2003) (supra)). […]

Assay [4] concerns the target T2, Cul5-SOCS-3 E3 ligase (Homo sapiens, UniProt O14543).
T2 construct: expressed in transfected cells; host or cells: 293T
T2 sequence (O14543 1-225): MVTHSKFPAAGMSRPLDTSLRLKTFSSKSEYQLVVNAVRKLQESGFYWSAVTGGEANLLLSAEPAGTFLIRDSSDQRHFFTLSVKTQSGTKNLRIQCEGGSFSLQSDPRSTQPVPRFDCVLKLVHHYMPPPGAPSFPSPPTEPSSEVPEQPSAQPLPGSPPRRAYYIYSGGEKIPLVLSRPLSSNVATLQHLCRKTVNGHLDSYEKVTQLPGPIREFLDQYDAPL
Description: SOCS-3-HA immunoprecipitation and immunoblot in 293T cells. The conditions noted are these: 4 μM TPEN vs control DMSO. It is filed as cell-based. The method, then: as §3, §4, §5

For assay [5], the system named is virion incorporation of A3G. Description: A3G levels in cells and virions, WT or ΔVif NL4-3 virus with A3G-myc. It is filed as cell-based, HIV-1. The conditions noted are these: 4 μM TPEN vs DMSO. The protocol: 293T cells were transfected with the indicated plasmids in the presence of 4 μM TPEN or control vehicle. Cell lysates were analyzed for A3G degradation by SDS-PAGE followed by immunoblotting for A3G-HA, Vif-myc, and ribosomal p19 as a loading control. […] 293T cells were transfected with the indicated plasmids and treated with […] TPEN or control vehicle. Vif-HA was immunoprecipitated from prepared lysates. Lysates were analyzed by SDS-PAGE followed by immunoblotting for Vif-HA and A3G-myc. […] Cells were infected with WT or ΔVif NL4-3 virus in the presence of A3G-myc and treated with 4 μM TPEN or DMSO. Cells were harvested and virus was isolated from the supernatant by ultracentrifugation and analyzed by SDS PAGE and immunoblotting against Vif, myc, and p24. […] Adenovirus E4orf6 mediated p53 degradation is not affected by 4 μM TPEN. 293T cells were transfected with p53 and E4orf6-myc expression vectors in the presence of 4 μM TPEN or control vehicle. Cells were harvested and analyzed for p53 degradation by SDS-PAGE followed by immunoblotting for p53, E4orf6-myc, and ribosomal p19 as a loading control.
Medium was removed 12 h prior to harvesting cells and replaced with either fresh medium alone or medium containing the indicated concentration of TPEN (Sigma). […]

The subject of assay [6] is HIV-1 Vif mediated A3G degradation. Description: Vif mediated A3G degradation in transfected 293T cells (immunoblot). In kind it is cell-based. The protocol: as §1, §2
Assay [7] relates to Rbx function (E4orf6 mediated p53 degradation). The experiment in a line: Adenovirus E4orf6 mediated p53 degradation in 293T cells (Rbx function). In kind it is cell-based. The conditions noted are these: 4 μM TPEN. The method, then:
as §1, §2

In assay [8] the test system is NL4-3 virus infectivity in MAGI cells. Description: MAGI assay of virus infectivity, virus produced in 293T or 293T-A3G cells. It is filed as cell-based, HIV-1. The protocol:
MAGI cells were infected with wild-type or Vif deficient NL4-3 produced in the absence or presence of A3G and […] TPEN as indicated. Relative infectivity was calculated by setting wild type virus infectivity to 100% (lane 1).
293T and MAGI-CCR5 cells (Chackerian et al. (1997) J Virol 71, 3932-3939) were maintained and transfected or infected as previously described (Yu et al. (2003) (supra)). The MAGI assay was performed as described previously and the antibodies used in this study have been described: anti-HA antibody-agarose conjugate, anti-myc antibody-agarose conjugate, anti-Vif, anti-Elongin B, anti-Elongin C, anti-Myc, anti-HA, and anti-human ribosomal P antigens (Yu et al. (2003) (supra)). The anti-p53 mouse mAb was obtained from Oncogene Research Products (Cat. #OP03).
as §4
In order to assess the biological relevance of the zinc requirement in Vif-Cul5 interaction and assess whether A3G retained antiviral function in the presence of 7 μM TPEN, we studied the effect of TPEN on virus infectivity. MAGI cells were infected with wild type or Vif deficient virus produced in 293T or 293T-A3G cells in the presence of 7 μM TPEN or control DMSO. We set the infectivity of WT virus in the absence of A3G to 100%, and calculated the relative infectivity under all treated conditions (FIG. 4). As expected, in the presence of A3G and the absence of Vif, there was a drastic decrease of infectivity to 8% (FIG. 4, lane 4). However in the presence of Vif, A3G was neutralized resulting in 91% infectivity (FIG. 4, lane 3). One would expect zinc chelation to have an effect on virus infectivity independent of Vif function. We observed a modest decrease in infectivity, of about 15% even in the absence of A3G (FIG. 4, lanes, 5 and 6). […]

Assay [9] concerns the target T3, HIV-1 Vif-Cul5 interaction (Human immunodeficiency virus type 1 group M subtype B, UniProt P69723).
T3 construct: expressed in transfected cells; host or cells: 293T
Description: Vif-HA immunoprecipitation and immunoblot for Cul5, ElonginB, ElonginC in Vif-expressing 293T cells. It is filed as cell-based. The method, then:
The Cul5-Vif E3 ubiquitin ligase binds A3G and brings it in close proximity with the E2 ubiquitin conjugating enzyme. Polyubiquitinated A3G is recognized by the proteasome and subsequently degraded. […] 293T cells were transfected with Vif-HA expression vectors as previously described and treated with the indicated amounts of TPEN. Vif-HA was immunoprecipitated and eluted materials were then analyzed by SDS-PAGE and immunoblotting for Cul5, Vif-HA, ElonginB, and ElonginC. […] 293T cells were transfected with Vif-HA and treated with the indicated amounts of TPEN. Cell lysates were harvested and analyzed by SDS-PAGE and immunoblotting for Cul5 and Vif-HA.
as §4
Transfected 293T cells were harvested, washed twice with cold PBS, and lysed in lysis buffer (50 mM Tris, pH 7.5, with 150 mM NaCl, 1% Triton X-100, and complete protease inhibitor cocktail tablets) at 4° C. for 1 h, then centrifuged at 10,000×g for 30 min. For myc-tag immunoprecipitation, precleared cell lysates were mixed with anti-myc antibody (Upstate) and incubated with protein G at 4° C. for 3 h. For HA tag immunoprecipitation, precleared cell lysates were mixed with anti-HA antibody-conjugated agarose beads (Roche) and incubated at 4° C. for 3 h. Samples were then washed three times with washing buffer (20 mM Tris, pH 7.5, with 100 mM NaCl, 0.1 mM EDTA, and 0.05% Tween-20). The beads were eluted with elution buffer (0.1 M glycine-HCl, pH 2.0) or 2× loading buffer. The eluted materials were then analyzed by SDS-PAGE and immunoblotting as previously described (Yu et al. (2003) (supra)).

The test system of assay [10] is SIVagm Vif-Cul5 interaction. The experiment in a line: SIVagm Vif immunoprecipitation and immunoblot in 293T cells. It is filed as cell-based. The conditions noted are these: 4 μM TPEN vs vehicle DMSO. The method, then:
as §3, §4, §5

“And” between values parts separate entries of the source, which are not always exact repeats. Identical values can stand only once.

T3 sequence (Q15370 whole entry): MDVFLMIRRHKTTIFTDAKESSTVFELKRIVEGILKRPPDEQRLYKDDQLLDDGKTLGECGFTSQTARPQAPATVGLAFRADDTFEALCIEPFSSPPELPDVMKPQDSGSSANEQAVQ
T3 sequence (Q15369 whole entry, further chain): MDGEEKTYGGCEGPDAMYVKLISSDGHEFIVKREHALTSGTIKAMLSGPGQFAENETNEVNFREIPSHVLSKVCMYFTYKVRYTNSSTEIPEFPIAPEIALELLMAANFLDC
T3 sequence (Q13951 whole entry, further chain): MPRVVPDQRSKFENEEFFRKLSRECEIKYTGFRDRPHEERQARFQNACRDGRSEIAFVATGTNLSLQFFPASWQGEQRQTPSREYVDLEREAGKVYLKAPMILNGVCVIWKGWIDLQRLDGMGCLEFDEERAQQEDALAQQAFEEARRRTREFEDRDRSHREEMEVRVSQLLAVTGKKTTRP
T3 sequence (P69723 whole entry): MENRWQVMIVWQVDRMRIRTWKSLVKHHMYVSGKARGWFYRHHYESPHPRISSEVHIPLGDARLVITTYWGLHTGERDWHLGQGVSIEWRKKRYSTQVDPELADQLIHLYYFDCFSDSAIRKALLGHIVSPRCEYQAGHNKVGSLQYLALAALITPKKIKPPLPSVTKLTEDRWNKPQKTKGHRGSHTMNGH
T1 sequence (Q9HC16 whole entry): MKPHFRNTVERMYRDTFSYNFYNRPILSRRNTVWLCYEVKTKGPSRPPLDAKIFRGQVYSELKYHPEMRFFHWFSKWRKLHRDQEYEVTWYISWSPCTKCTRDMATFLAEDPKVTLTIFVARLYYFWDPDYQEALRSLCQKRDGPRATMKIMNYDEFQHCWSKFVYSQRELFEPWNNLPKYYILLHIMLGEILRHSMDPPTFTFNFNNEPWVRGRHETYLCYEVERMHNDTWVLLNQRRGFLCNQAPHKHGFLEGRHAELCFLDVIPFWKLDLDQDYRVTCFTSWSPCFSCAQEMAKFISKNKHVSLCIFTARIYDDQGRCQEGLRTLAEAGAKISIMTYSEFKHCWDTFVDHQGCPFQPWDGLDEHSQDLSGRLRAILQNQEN
T1 sequence (P69723 whole entry): as the sequence (P69723 whole entry) above
T1 sequence (Q13951 whole entry, further chain): as the sequence (Q13951 whole entry, further chain) above
T1 sequence (Q15369 whole entry, further chain): as the sequence (Q15369 whole entry, further chain) above
T1 sequence (Q15370 whole entry, further chain): as the sequence (Q15370 whole entry) above

With `Oc1ccc(O)c(Cl)c1` [Chloroquinol], in assay [1], the “effectiveness as inhibitor in a method of the invention” value was “not an effective inhibitor”.

For the compound `c1ccc(CN(CCN(Cc2ccccn2)Cc2ccccn2)Cc2ccccn2)nc1` [TPEN, N,N,N′,N′-Tetrakis-(2-pyridylmethyl)ethylenediamine], in [2], the “effect on Vif-A3G interaction” value was “no effect”. Further, in [3], the “Cul5 co-immunoprecipitation with SIVsyk Vif” value is “marked decrease”; the “ElonginB and ElonginC detected with SIVsyk Vif” value is “equal amounts”. Also, in [4], the “interaction of SOCS-3 with Cul5” value was “equal interaction”. In assay [5], the “A3G incorporation into virions in the presence of Vif” value is reported as “enhancing incorporation” and the “cellular A3G protein levels in the presence of Vif” value is reported as “increased”. The “A3G expression or stability in the absence of HIV-1 Vif” value in assay [6] (4 μM TPEN) is reported as “no effect”. Moreover, the “A3G degradation induced by HIV-1 Vif” value in assay [6] (4 μM TPEN vs control vehicle) is on record as “abolished”. For the same compound, in assay [7], the “p53 levels in the presence of E4orf6” value was “declined”. Also, the “decrease in infectivity in the absence of A3G” value in assay [8] (7 μM TPEN on producer cells, relative to WT virus without A3G = 100%) is “about 15%”. The “infectivity loss in the presence of A3G and Vif” value in assay [8] (7 μM TPEN on producer cells, relative to WT virus without A3G = 100%, 91% infectivity without TPEN) is reported as “about 87%”. For the same compound, the “effect on A3G function” value in assay [8] (7 μM TPEN, FIG. 4 lanes 7 and 8) was “no effect”. The “effect on cellular Cul5 protein levels” value in assay [9] (293T cells transfected with Vif-HA, cell lysates) is “did not have any effect”. For the same compound, in assay [9] (IC50, decrease of Cul5-Vif interaction, Vif-expressing 293T cells, increasing concentrations of TPEN, 12-h incubation), the IC50 is ~1.79 µM and 1.79 µM. Further, the “interaction of Vif with ElonginB and ElonginC” value in assay [9] (Vif-expressing 293T cells, increasing concentrations of TPEN) is given as “remained constant”. Moreover, in assay [10], the “Cul5 co-immunoprecipitation with SIVagm Vif” value is on record as “marked decrease”; the “ElonginB and ElonginC detected with SIVagm Vif” value is “equal amounts”.
